Source: article PMC10812672, “Short Antimicrobial Peptide Derived from the Venom Gland Transcriptome of Pamphobeteus verdolaga Increases Gentamicin Susceptibility of Multidrug-Resistant Klebsiella pneumoniae” (Antibiotics, 2023)
Ends that are not written are not given here.

Key:
[1] = system: multidrug-resistant (MDR) strain of K. pneumoniae, clinical isolate; experiment: microbe, parasite or virus in culture; format: cell-based, Klebsiella pneumoniae; settings: Klebsiella pneumoniae, read-out: maximum growth inhibition
Description: A multidrug-resistant (MDR) strain of K. pneumoniae was identified and isolated from a tertiary-level hospital in Medellin, Colombia, using the VITEK-2 system (bioMérieux, Marcy-l’Étoile, France). The MDR strain was evaluated against several antibiotics at concentrations of 1.56–100 μM. […] In contrast, the strain was susceptible to doxycycline (Supplementary Figure S7g) and chloramphenicol (Supplementary Figure S7h), with MICs of 50 μM and 100 µM, respectively (Table 3). […] All of P. verdolaga’s AMPs were evaluated against the clinical isolate at concentrations of 1.56–200 µM (Supplementary Figure S8). […] A growth inhibition kinetic assay was conducted. […] All of P. verdolaga’s peptides at 100 μM induced morphological changes in the MDR K. pneumoniae, indicating membrane interactions, even though no significant inhibition was observed (Supplementary Figure S9).
The evaluation of the antimicrobial activity of the peptides was conducted using the CLSI’s broth microdilution method for bacterial susceptibility testing. For the screening phase, peptides were evaluated at a single 30 μM concentration, in triplicate and in three independent assays, against the E. coli ATCC® 8739, E. coli ATCC® 25922, S. aureus ATCC® 6538, or S. aureus ATCC® 29213 reference USP and CLSI strains. For the determination of MIC, MBC, or IC50, peptides or antibiotics were evaluated in concentrations between 1.56–200 µM. These evaluations were conducted in triplicate and in three independent assays, against the E. coli ATCC® 25922, S. aureus ATCC® 29213, E. faecalis ATCC® 49532, P. aeruginosa ATCC® 9027, and K. pneumoniae ATCC® BAA-1705, or the clinically isolated MDR strain. In detail, 1 mL of a glycerol stock solution of the ATCC® or clinically isolated bacterial strain was added to 9 mL of Mueller-Hinton Broth and incubated for 18 h, 180 rpm and 37 °C (Incubator 1000, Heidolph Instruments, Schwabach, Germany). After the incubation, 1 mL of the previous solution was transferred to a new recipient containing 9 mL of fresh Mueller-Hinton broth and incubated for 4 h, 180 rpm and 37 °C (Incubator 1000, Heidolph Instruments, Schwabach, Germany). During the second incubation, the peptides or the antibiotics were dissolved in PBS pH 7.20 in concentrations between 19.53–2500 µM (MC5 Micro Balance, Sartorius AG, Göttingen, Germany). An amount of 10 µL of either peptide or antibiotic was dispensed in triplicate in 96-well flat bottom culture plates, along with 10 µL of PBS (Negative activity control), BTM-P1 (Positive activity control), or 10 µL of Mueller-Hinton broth (Blank); then, 110 µL of Mueller-Hinton broth was poured in all wells. Following this, the bacteria were suspended in Mueller-Hinton broth up to a concentration of approximately 1.50 × 10^8 CFU/mL, as measured by optical density at 600 nm between 0.06 to 0.11 (0.5 McFarland standard), in a Multiskan SkyHigh spectrophotometer (ThermoFisher Scientific, Waltham, MA, USA). Amounts of 5 µL of the 1.50 × 10^8 CFU/mL suspension were added to each well (except for the blank) for a final well concentration of approximately 6 × 10^6 CFU/mL. The plate was incubated for 24 h at 37 °C (BE 500, Memmert GmbH, Büchenbach, Germany) and optical density was measured at 600 nm in a Multiskan SkyHigh spectrophotometer (ThermoFisher Scientific, Waltham, MI, USA). Following the measurement of optical density, plates were visually inspected to determine the MIC. Subsequently, 100 µL of the concentration associated to the MIC and 100 µL of the next higher concentration were added to Petri dishes containing Mueller-Hinton Agar. The dishes were then incubated for 24 h at 37 °C (BE 500, Memmert GmbH, Büchenbach, Germany). After incubation, the Petri dishes were visually inspected, and the MBC was determined in the absence of growth. IC50 values were interpolated from regressions with correlation values above 0.70. […]

[2] = system: E. coli ATCC® 8739; format: cell-based, Escherichia coli; settings: CLSI broth microdilution, Mueller-Hinton broth, peptide 30 µM, ~6 × 10^6 CFU/mL, 24 h 37 °C, OD600; triplicate, three independent assays; NA = no activity
Description: (§1) Activity screening was conducted using the broth microdilution method at a fixed peptide concentration of 30 µM against E. coli ATCC® 8739 and 25922, as well as S. aureus ATCC® 6538 and 29213. The bacterial density used for screening was approximately 6 × 10^6 CFU/mL [30]. Peptide activity measurements were conducted in terms of the growth inhibition percentage. No dose-response curves were generated during the screening phase as a resource optimization strategy in the initial activity evaluation. […] For S. aureus ATCC® 6538 and S. aureus ATCC® 29213, growth inhibition ranged from 0% to 140% and 0% to 98%, respectively (Table 1).
(§2) The evaluation of the antimicrobial activity of the peptides was conducted using the CLSI’s broth microdilution method for bacterial susceptibility testing. For the screening phase, peptides were evaluated at a single 30 μM concentration, in triplicate and in three independent assays, against the E. coli ATCC® 8739, E. coli ATCC® 25922, S. aureus ATCC® 6538, or S. aureus ATCC® 29213 reference USP and CLSI strains. For the determination of MIC, MBC, or IC50, peptides or antibiotics were evaluated in concentrations between 1.56–200 µM. These evaluations were conducted in triplicate and in three independent assays, against the E. coli ATCC® 25922, S. aureus ATCC® 29213, E. faecalis ATCC® 49532, P. aeruginosa ATCC® 9027, and K. pneumoniae ATCC® BAA-1705, or the clinically isolated MDR strain. In detail, 1 mL of a glycerol stock solution of the ATCC® or clinically isolated bacterial strain was added to 9 mL of Mueller-Hinton Broth and incubated for 18 h, 180 rpm and 37 °C (Incubator 1000, Heidolph Instruments, Schwabach, Germany). After the incubation, 1 mL of the previous solution was transferred to a new recipient containing 9 mL of fresh Mueller-Hinton broth and incubated for 4 h, 180 rpm and 37 °C (Incubator 1000, Heidolph Instruments, Schwabach, Germany). During the second incubation, the peptides or the antibiotics were dissolved in PBS pH 7.20 in concentrations between 19.53–2500 µM (MC5 Micro Balance, Sartorius AG, Göttingen, Germany). An amount of 10 µL of either peptide or antibiotic was dispensed in triplicate in 96-well flat bottom culture plates, along with 10 µL of PBS (Negative activity control), BTM-P1 (Positive activity control), or 10 µL of Mueller-Hinton broth (Blank); then, 110 µL of Mueller-Hinton broth was poured in all wells. Following this, the bacteria were suspended in Mueller-Hinton broth up to a concentration of approximately 1.50 × 10^8 CFU/mL, as measured by optical density at 600 nm between 0.06 to 0.11 (0.5 McFarland standard), in a Multiskan SkyHigh spectrophotometer (ThermoFisher Scientific, Waltham, MA, USA). Amounts of 5 µL of the 1.50 × 10^8 CFU/mL suspension were added to each well (except for the blank) for a final well concentration of approximately 6 × 10^6 CFU/mL. The plate was incubated for 24 h at 37 °C (BE 500, Memmert GmbH, Büchenbach, Germany) and optical density was measured at 600 nm in a Multiskan SkyHigh spectrophotometer (ThermoFisher Scientific, Waltham, MI, USA). Following the measurement of optical density, plates were visually inspected to determine the MIC. Subsequently, 100 µL of the concentration associated to the MIC and 100 µL of the next higher concentration were added to Petri dishes containing Mueller-Hinton Agar. The dishes were then incubated for 24 h at 37 °C (BE 500, Memmert GmbH, Büchenbach, Germany). After incubation, the Petri dishes were visually inspected, and the MBC was determined in the absence of growth. IC50 values were interpolated from regressions with correlation values above 0.70. Growth inhibition percentages were calculated as follows: Growth inhibition %=1−AbsPEPTIDE or ANTIBIOTIC−Median AbsBLANK/Median AbsPBS−Median AbsBLANK×100

[3] = system: E. coli ATCC® 25922; format: cell-based, Escherichia coli; settings: CLSI broth microdilution, Mueller-Hinton broth, peptide 30 µM, ~6 × 10^6 CFU/mL, 24 h 37 °C, OD600; triplicate, three independent assays; NA = no activity
Description: as §1, §2

[4] = system: S. aureus ATCC® 6538; format: cell-based, Staphylococcus aureus; settings: CLSI broth microdilution, Mueller-Hinton broth, peptide 30 µM, ~6 × 10^6 CFU/mL, 24 h 37 °C, OD600; triplicate, three independent assays; NA = no activity
Description: as §1, §2

[5] = system: S. aureus ATCC® 29213; format: cell-based, Staphylococcus aureus; settings: CLSI broth microdilution, Mueller-Hinton broth, peptide 30 µM, ~6 × 10^6 CFU/mL, 24 h 37 °C, OD600; triplicate, three independent assays; NA = no activity
Description: as §1, §2

[6] = system: E. coli ATCC® 25922; format: cell-based, Escherichia coli; settings: 24 h 37 °C
Description: (§3) The nine AMPs identified in the initial screening were evaluated at concentrations between 1.56–200 µM, against E. coli ATCC® 25922, S. aureus ATCC® 29213, E. faecalis ATCC® 49532, P. aeruginosa ATCC® 9027, and K. pneumoniae ATCC® BAA-1705 (Supplementary Figures S2–S6). […] Only PvAMP66 and PvAMP172 reached the MBC for S. aureus at 50 µM and 100 µM, respectively (Table 2).
as §2

[7] = system: P. aeruginosa ATCC® 9027; format: cell-based, Pseudomonas aeruginosa
Description: as §3, §2

[8] = plating on Mueller-Hinton agar, absence of growth

Work on `CC1(C)S[C@@H]2[C@H](NC(=O)[C@H](N)c3ccccc3)C(=O)N2[C@H]1C(=O)O` [ampicillin] yielded an inhibition at 100 µM [1] of no more than 20%.

In the case of `Cc1onc(-c2c(Cl)cccc2Cl)c1C(=O)N[C@@H]1C(=O)N2[C@@H]1SC(C)(C)[C@@H]2C(=O)O` [dicloxacillin], the inhibition at 100 µM [1] is reported as no more than 20%.

`CN(C)[C@@H]1C(O)=C(C(N)=O)C(=O)[C@@]2(O)C(O)=C3C(=O)c4c(O)cccc4[C@@](C)(O)[C@H]3[C@H](O)[C@@H]12` [oxytetracycline] gave an inhibition at 100 µM [1] of no more than 20%.

Work on `[H]/N=C(/N)N[C@H]1[C@H](O)[C@@H](O)[C@H](O[C@@H]2O[C@@H](C)[C@](O)(C=O)[C@H]2O[C@@H]2O[C@@H](CO)[C@H](O)[C@@H](O)[C@@H]2NC)[C@@H](N/C(N)=N\[H])[C@@H]1O` [streptomycin] yielded an inhibition at 100 µM [1] of no more than 20%.

With “CRRVCYKNR CVTYCRG (disulfide) [PvAMP169, predicted P. verdolaga AMP]” the inhibition [2] was 13.6 ± 5.92% and the “E. coli ATCC® 25922 (Inhibition %)” value [3] was 55.69 ± 4.65 %.

In the case of FLGKNLG-NH2 [PvAMP15], the “S. aureus ATCC® 6538 (Inhibition %)” value [4] is reported as 43.62 ± 10.56 % and the inhibition [5] is reported as 27.5 ± 29.7%.

With FSGNKLLPG-NH2 [PvAMP81] the inhibition [2] was 8.57 ± 4.46% and the “E. coli ATCC® 25922 (Inhibition %)” value [3] was 31.88 ± 2.18 %.

GRIFRLLRK-NH2 [PvAMP82] was tested, and the “S. aureus ATCC® 6538 (Inhibition %)” value [4] was 43.03 ± 6.37 %, the “S. aureus ATCC® 29213 (Inhibition %)” value [5] was 43.44 ± 10.24 % and the MIC ([6]; 1.56–200 µM, visual inspection, triplicate, three independent assays) was 100 µM. It also gave an MBC [6, 8] of 100 µM, an MIC ([7]; 1.56–200 µM, 24 h 37 °C, visual inspection, triplicate, three independent assays) of 200 µM and an MBC [7, 8] of 200 µM. The “E. coli ATCC® 8739 (Inhibition %)” value [2] was 64.01 ± 4.28 % and the “E. coli ATCC® 25922 (Inhibition %)” value [3] was 74.94 ± 14.27 %.
